Laboratory results from article PMC9599461, “Stereoselectivity in the Membrane Transport of Phenylethylamine Derivatives by Human Monoamine Transporters and Organic Cation Transporters 1, 2, and 3” (Biomolecules, 2022).
Where two headings read alike, the source gives them in different places. Marks after values point to notes of the source that are not given here.

How the values were obtained:
SERT [1] = biological target: T1, SERT (Homo sapiens, UniProt P31645); experiment: Stereoselective uptake into SERT-overexpressing HEK293 cells; conditions: for Vmax ± SEM / Km: HEK293 cells overexpressing human SERT, racemic substrate, two minutes; for Vmax ± SEM: net uptake; for Clint ± SEM: SERT, quotient of vmax over Km; for Km: read-out: Km ± SEM, net uptake minus empty vector control;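 for all read-outs here: uptake into HEK293 cells stably expressing human SERT over 2 min, enantiomers measured in cell lysate by chiral HPLC-MS/MS, normalized to total protein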
T1 sequence (P31645 whole entry): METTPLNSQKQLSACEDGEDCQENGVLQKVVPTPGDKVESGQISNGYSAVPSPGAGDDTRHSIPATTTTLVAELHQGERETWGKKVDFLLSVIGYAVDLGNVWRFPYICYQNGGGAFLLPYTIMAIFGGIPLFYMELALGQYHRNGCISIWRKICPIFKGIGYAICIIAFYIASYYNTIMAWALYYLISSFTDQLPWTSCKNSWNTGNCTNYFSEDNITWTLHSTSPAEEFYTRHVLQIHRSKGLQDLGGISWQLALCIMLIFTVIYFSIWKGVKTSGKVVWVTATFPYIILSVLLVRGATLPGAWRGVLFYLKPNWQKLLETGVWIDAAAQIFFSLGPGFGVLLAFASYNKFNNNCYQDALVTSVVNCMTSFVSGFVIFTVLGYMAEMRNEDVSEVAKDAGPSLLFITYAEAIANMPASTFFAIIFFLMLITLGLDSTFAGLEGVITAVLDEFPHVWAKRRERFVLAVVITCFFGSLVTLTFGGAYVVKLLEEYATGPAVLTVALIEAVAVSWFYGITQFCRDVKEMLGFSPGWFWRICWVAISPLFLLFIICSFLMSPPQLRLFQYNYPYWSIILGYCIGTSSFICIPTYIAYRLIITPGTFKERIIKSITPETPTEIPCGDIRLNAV
Description: (§1) All transport experiments were carried out in HEK293 cells stably overexpressing human MATs or OCTs. […] All cells were regularly cultivated in DMEM supplemented with 10% (v/v) FCS, penicillin (100 U/mL) and streptomycin (100 μg/mL)and kept in culture for no longer than 30 passages.
(§2) For the uptake experiments, 300,000 cells were plated in poly-D-lysine precoated 24-well plates 48 h ahead of the transport experiment. On the day of experiment, cells were initially washed once with 37 °C pre-warmed HBSS+ (Hanks buffered salt solution supplemented with 10 mM HEPES) and subsequently incubated with the substrates dissolved in pre-warmed HBSS+ for exactly two minutes. Incubation was stopped by adding ice-cold HBSS+ followed by two washing steps. After this, cells were lysed with 80% acetonitrile containing 10 ng/mL milnacipran as internal standard for high-performance liquid chromatography coupled to tandem mass spectrometry (HPLC-MS/MS) analysis. For every experiment, two additional wells per cell line were lysed using RIPA buffer for protein quantification. Total protein was quantified using the bicinchoninic acid assay [42]. This was later used for normalization of the uptake data.
(§3) Intracellularly accumulated test substances were quantified by HPLC-MS/MS analysis using a Shimadzu Nexera HPLC system with a SIL-30AC autosampler, a CTO-20AC column oven, a LC-30AD pump, and a CBM-20A controller (Shimadzu, Kyoto, Japan). […] CBH HPLC column (100 × 3 mm inner dimension with 5 μM particle size; Sigma-Aldrich, Darmstadt, Germany) with a corresponding 10 × 3 mm guard column. Reversed phased chromatography was carried out using an ammonium acetate (NH4Ac) buffered aqueous mobile phase with isopropyl alcohol (IPA) as organic solvent. […] The order of elution of the enantiomers was obtained from available reference literature [43] or by applying enantiopure reference compounds to the chiral HPLC.
(§4) Detection was performed with an API 4000 tandem mass spectrometer (AB SCIEX, Darmstadt, Germany) operating in multiple-reaction-monitoring mode. Quantification was performed using the Analyst 1.6.2 software (AB SCIEX, Darmstadt, Germany) and quantified by comparison to standard curves with known concentrations.
(§5) All uptake data were normalized to protein content to account for variation in the number of seeded sells. Transporter-mediated net uptake was calculated by subtracting uptake into empty vector-transfected control cells from uptake into transporter-transfected cells. […] Vmax refers to the maximum transport velocity and Km is defined as the substance concentration required to reach half of vmax. The intrinsic clearance Clint was calculated as the quotient of vmax over Km.

SERT [2] = biological target: T1, SERT
Description: as §1, §2, §3, §4, §5

DAT = DAT (Homo sapiens, UniProt Q01959); experiment: Stereoselective uptake into DAT-overexpressing HEK293 cells; conditions: for Clint ± SEM / Stereoselectivity ClInt / Stereoselectivity Vmax / Stereoselectivity Km: DAT; for Clint ± SEM: quotient of vmax over Km; for Stereoselectivity ClInt / Stereoselectivity Vmax / Stereoselectivity Km: ratio between enantiomers; for Stereoselectivity ClInt / Stereoselectivity Vmax: given as for (S) or for 2; for Stereoselectivity Km: given as for (S) or for 2 (second-eluting); for Vmax ± SEM / Km: HEK293 cells overexpressing human DAT, racemic substrate, two minutes; for Vmax ± SEM: net uptake; for Km: read-out: Km ± SEM, net uptake minus empty vector control;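 for all read-outs here: intracellular accumulation measured by chiral HPLC-MS/MS in stably transfected HEK293 cells, normalized to total protein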
DAT, sequence (Q01959 whole entry): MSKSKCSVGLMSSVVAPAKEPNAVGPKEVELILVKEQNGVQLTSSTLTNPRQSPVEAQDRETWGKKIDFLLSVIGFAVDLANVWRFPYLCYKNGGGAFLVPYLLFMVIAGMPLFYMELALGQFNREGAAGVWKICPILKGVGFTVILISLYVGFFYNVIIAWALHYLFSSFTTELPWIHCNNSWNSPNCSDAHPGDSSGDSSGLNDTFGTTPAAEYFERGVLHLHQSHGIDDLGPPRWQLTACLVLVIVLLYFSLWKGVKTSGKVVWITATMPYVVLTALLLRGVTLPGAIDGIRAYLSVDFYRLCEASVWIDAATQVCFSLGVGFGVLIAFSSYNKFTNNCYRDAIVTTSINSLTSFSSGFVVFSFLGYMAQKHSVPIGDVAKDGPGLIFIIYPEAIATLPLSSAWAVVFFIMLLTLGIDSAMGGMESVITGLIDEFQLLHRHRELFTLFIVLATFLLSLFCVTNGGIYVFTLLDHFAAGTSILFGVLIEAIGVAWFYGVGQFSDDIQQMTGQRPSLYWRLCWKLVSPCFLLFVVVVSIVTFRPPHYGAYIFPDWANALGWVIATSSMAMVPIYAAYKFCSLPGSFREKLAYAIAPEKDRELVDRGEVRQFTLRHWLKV
Description: as §1, §2
(§6) Intracellularly accumulated test substances were quantified by HPLC-MS/MS analysis using a Shimadzu Nexera HPLC system with a SIL-30AC autosampler, a CTO-20AC column oven, a LC-30AD pump, and a CBM-20A controller (Shimadzu, Kyoto, Japan). Stereoselective chromatography was carried out on a [sequence] CBH HPLC column (100 × 3 mm inner dimension with 5 μM particle size; Sigma-Aldrich, Darmstadt, Germany) with a corresponding 10 × 3 mm guard column. Reversed phased chromatography was carried out using an ammonium acetate (NH4Ac) buffered aqueous mobile phase with isopropyl alcohol (IPA) as organic solvent. […] The order of elution of the enantiomers was obtained from available reference literature [43] or by applying enantiopure reference compounds to the chiral HPLC. […] Given the structural similarity of the investigated substances and the fact that separation was performed on the same column with almost identical mobile phases, we assume that this order of elution for our compound set is always the (R)- before the (S)-enantiomer.
as §4
(§7) All uptake data were normalized to protein content to account for variation in the number of seeded sells. Transporter-mediated net uptake was calculated by subtracting uptake into empty vector-transfected control cells from uptake into transporter-transfected cells. Kinetic parameters were then determined after non-linear regression following the Michaelis–Menten equation (v = vmax × [S]/(Km + [S])) using GraphPad Prism (Version 5.01 for Windows, GraphPad Software, La Jolla, CA, USA). Vmax refers to the maximum transport velocity and Km is defined as the substance concentration required to reach half of vmax. The intrinsic clearance Clint was calculated as the quotient of vmax over Km.

OCT2 A270S variant = experiment: Stereoselective uptake into OCT2 A270S variant-overexpressing HEK293 cells; conditions: OCT2 wild-type versus A270S, 100 μM racemic substance, two minutes, given as for WT;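 note: uptake into HEK293 cells stably overexpressing human OCT2 variants, intracellular enantiomers quantified by chiral HPLC-MS/MS and normalized to total protein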
NET = NET (Homo sapiens, UniProt P23975); experiment: Stereoselective uptake into NET-overexpressing HEK293 cells; conditions: for Vmax ± SEM / Km: HEK293 cells overexpressing human NET, racemic substrate, two minutes; for Vmax ± SEM: net uptake; for Clint ± SEM / Stereoselectivity ClInt / Stereoselectivity Vmax / Stereoselectivity Km: NET; for Clint ± SEM: quotient of vmax over Km; for Stereoselectivity ClInt / Stereoselectivity Vmax / Stereoselectivity Km: ratio between enantiomers; for Stereoselectivity ClInt / Stereoselectivity Vmax: given as for (S) or for 2; for Stereoselectivity Km: given as for (S) or for 2 (second-eluting); for Km: read-out: Km ± SEM, net uptake minus empty vector control;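 for all read-outs here: intracellular enantiomers quantified in cell lysates by chiral HPLC-MS/MS after a 2 min substrate incubation, with uptake normalized to total cellular protein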
NET, sequence (P23975 whole entry): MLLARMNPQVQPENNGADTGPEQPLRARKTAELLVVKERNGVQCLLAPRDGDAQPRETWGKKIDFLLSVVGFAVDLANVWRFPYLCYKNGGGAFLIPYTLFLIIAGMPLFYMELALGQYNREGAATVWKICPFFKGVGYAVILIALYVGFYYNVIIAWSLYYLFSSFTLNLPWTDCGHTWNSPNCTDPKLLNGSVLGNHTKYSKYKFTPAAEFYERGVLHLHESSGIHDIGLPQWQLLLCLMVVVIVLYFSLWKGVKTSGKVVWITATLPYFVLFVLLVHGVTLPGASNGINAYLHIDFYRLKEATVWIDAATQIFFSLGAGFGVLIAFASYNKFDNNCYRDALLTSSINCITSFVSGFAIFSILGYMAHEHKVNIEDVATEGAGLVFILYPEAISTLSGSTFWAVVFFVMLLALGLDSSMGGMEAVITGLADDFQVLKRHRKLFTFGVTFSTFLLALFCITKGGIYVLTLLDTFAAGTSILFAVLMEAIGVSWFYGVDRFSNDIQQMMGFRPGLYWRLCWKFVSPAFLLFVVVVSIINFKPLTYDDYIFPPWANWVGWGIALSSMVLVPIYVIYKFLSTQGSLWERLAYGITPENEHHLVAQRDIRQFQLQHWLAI

OCT2 [3] = biological target: T2, OCT2 (Homo sapiens, UniProt O15244); experiment: Stereoselective uptake into OCT2 (wild-type)-overexpressing HEK293 cells; conditions: for Vmax ± SEM / Km: HEK293 cells overexpressing human OCT2, racemic substrate, two minutes; for Vmax ± SEM: net uptake; for Clint ± SEM: OCT2, quotient of vmax over Km; for Km: read-out: Km ± SEM, net uptake minus empty vector control
T2 sequence (O15244 1-555 S270A): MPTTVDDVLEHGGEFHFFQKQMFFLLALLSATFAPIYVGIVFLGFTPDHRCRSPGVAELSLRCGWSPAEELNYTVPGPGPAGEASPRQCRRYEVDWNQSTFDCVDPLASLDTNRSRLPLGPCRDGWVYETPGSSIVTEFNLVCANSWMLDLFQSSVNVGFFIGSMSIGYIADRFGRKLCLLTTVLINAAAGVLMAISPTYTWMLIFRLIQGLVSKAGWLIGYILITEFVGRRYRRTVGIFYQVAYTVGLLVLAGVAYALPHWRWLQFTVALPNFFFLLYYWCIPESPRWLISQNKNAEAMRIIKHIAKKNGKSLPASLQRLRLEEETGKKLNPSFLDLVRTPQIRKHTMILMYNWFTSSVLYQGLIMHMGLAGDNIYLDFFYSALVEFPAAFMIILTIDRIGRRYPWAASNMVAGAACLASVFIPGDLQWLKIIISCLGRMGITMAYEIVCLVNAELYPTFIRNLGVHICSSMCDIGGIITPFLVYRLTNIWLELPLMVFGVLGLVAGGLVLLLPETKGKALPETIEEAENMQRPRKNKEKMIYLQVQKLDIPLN

OCT2 [4] = biological target: T3, OCT2 (Homo sapiens, UniProt O15244, S270A); experiment: as above; conditions: OCT2, ratio between enantiomers; for Stereoselectivity Km: given as for (R) or for 1 (first-eluting)
T3 sequence (O15244 1-555 S270A): T2 sequence (O15244 1-555 S270A)

OCT3 = biological target: T4, OCT3 (Homo sapiens, UniProt O75751); experiment: Stereoselective uptake into OCT3-overexpressing HEK293 cells; conditions: for Vmax ± SEM / Km: HEK293 cells overexpressing human OCT3, racemic substrate, two minutes; for Vmax ± SEM: net uptake; for Clint ± SEM: quotient of vmax over Km; for Stereoselectivity Vmax: given as for (R) or for 1; for Km: read-out: Km ± SEM, net uptake minus empty vector control;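 for all read-outs here: intracellular accumulation in HEK293 cells measured by chiral HPLC-MS/MS after a 2 min substrate exposure at 37 °C, uptake normalized to total protein (bicinchoninic acid assay)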
T4 sequence (O75751 1-556): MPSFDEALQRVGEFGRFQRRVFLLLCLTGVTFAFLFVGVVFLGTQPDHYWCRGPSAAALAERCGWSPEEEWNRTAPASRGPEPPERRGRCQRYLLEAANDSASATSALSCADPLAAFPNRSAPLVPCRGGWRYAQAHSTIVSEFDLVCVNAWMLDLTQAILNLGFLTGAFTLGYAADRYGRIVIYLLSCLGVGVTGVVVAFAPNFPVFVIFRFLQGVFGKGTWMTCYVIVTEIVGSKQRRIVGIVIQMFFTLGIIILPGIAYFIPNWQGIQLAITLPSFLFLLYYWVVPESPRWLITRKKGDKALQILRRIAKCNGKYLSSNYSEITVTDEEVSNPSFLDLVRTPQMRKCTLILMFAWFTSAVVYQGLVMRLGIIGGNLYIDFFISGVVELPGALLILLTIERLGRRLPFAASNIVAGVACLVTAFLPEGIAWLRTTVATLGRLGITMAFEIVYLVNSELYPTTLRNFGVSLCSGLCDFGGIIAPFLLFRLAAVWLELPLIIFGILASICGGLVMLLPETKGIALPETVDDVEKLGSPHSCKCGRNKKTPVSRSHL

OCT1 = biological target: T5, OCT1 (Homo sapiens, UniProt O15245); experiment: Stereoselective uptake into OCT1-overexpressing HEK293 cells; conditions: for Vmax ± SEM / Km: HEK293 cells overexpressing human OCT1, racemic substrate, two minutes; for Vmax ± SEM: net uptake; for Clint ± SEM / Stereoselectivity ClInt / Stereoselectivity Vmax / Stereoselectivity Km: OCT1; for Clint ± SEM: quotient of vmax over Km; for Stereoselectivity ClInt / Stereoselectivity Vmax / Stereoselectivity Km: ratio between enantiomers; for Stereoselectivity Km: given as for (S) or for 2 (second-eluting); for Km: read-out: Km ± SEM, net uptake minus empty vector control;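 for all read-outs here: enantiomers quantified inside cells by chiral HPLC-MS/MS, uptake normalized to total protein from bicinchoninic acid assay, substrates applied in HBSS+ buffer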
T5 sequence (O15245 1-554): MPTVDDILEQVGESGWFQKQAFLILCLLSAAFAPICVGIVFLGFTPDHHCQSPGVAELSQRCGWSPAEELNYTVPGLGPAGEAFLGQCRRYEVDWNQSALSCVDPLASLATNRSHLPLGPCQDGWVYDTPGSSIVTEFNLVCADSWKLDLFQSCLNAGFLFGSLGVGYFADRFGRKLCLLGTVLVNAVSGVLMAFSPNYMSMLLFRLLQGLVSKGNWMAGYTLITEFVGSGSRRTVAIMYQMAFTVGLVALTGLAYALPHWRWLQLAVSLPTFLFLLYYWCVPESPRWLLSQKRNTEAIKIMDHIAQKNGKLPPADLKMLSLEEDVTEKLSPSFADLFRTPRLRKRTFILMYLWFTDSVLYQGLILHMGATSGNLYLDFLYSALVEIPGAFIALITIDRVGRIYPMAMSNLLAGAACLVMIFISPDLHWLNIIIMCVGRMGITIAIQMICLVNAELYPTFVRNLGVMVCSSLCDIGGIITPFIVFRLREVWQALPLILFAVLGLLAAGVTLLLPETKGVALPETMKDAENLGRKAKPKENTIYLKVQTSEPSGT
Description: as §1, §2, §6, §4, §7

[5] = OCT3, ratio between enantiomers
[6] = OCT3, ratio between enantiomers, given as for (R) or for 1 (first-eluting)
[7] = OCT3, ratio between enantiomers, given as for (S) or for 2

| Compound | Stereoselectivity Km (SERT [1]) | Stereoselectivity Vmax (SERT [1]) | Vmax ± SEM (SERT [1]) | Clint ± SEM (SERT [1]) | Km (SERT [1]) [µM] | Stereoselectivity ClInt (SERT [2]) | Vmax ± SEM (NET) | Clint ± SEM (NET) | Stereoselectivity ClInt (NET) | Stereoselectivity Vmax (NET) | Stereoselectivity Km (NET) | Km (NET) [µM] | Vmax ± SEM (OCT2 [3]) | Clint ± SEM (OCT2 [3]) | Km (OCT2 [3]) [µM] | Stereoselectivity Km (OCT2 [4]) | Vmax ± SEM (OCT3) | Clint ± SEM (OCT3; OCT3) | Stereoselectivity Vmax (OCT3; [5]) | Km (OCT3) [µM] | also measured |
| --- | --- | --- | --- | --- | --- | --- | --- | --- | --- | --- | --- | --- | --- | --- | --- | --- | --- | --- | --- | --- | --- |
| NC[C@@H](O)c1ccc(O)c(O)c1 [(S)-Norepinephrine] | 1.01-fold for (R) | 1.79-fold for (R) ** | 405 ± 42 pmol × mg Protein^−1 × min^−1 | 2.31 ± 0.93 mL × g Protein^−1 × min^−1 | 175 ± 52.2 | 1.78-fold for (R) | 362 ± 20 pmol × mg Protein^−1 × min^−1 | 118.7 ± 46.0 mL × g Protein^−1 × min^−1 | 1.05-fold for (S) | 1.38-fold for (S) ** | 1.32-fold for (S) | 3.05 ± 1.01 | 3042 ± 258 pmol × mg Protein^−1 × min^−1 | 2.32 ± 0.71 mL × g Protein^−1 × min^−1 | 1310 ± 291 | 1.32-fold for (R) | 3662 ± 299 pmol × mg Protein^−1 × min^−1 | 7.05 ± 2.73 mL × g Protein^−1 × min^−1 | 1.01-fold for (R) | 519 ± 158 | Clint ± SEM (DAT): 155.5 ± 21.4 mL × g Protein^−1 × min^−1; Stereoselectivity ClInt (DAT): 1.12-fold for (S); Stereoselectivity Vmax (DAT): 1.47-fold for (S) ***; Stereoselectivity Km (DAT): 1.31-fold for (S); Vmax ± SEM (DAT): 4524 ± 122 pmol × mg Protein^−1 × min^−1; Km (DAT): 29.1 ± 3.2 µM; Transporter selectivity (OCT2 A270S variant): 1.22 fold; Stereoselectivity ClInt (OCT2 [4]; given as for (R) or for 1): 1.64-fold for (R); Stereoselectivity Vmax (OCT2 [4]; given as for (R) or for 1): 2.17-fold for (R) **; Stereoselectivity Km (OCT3; [6]): 1.07-fold for (R); Stereoselectivity ClInt (OCT3; [7]): 1.07-fold for (S); Vmax ± SEM (OCT1): 1766 ± 258 pmol × mg Protein^−1 × min^−1; Clint ± SEM (OCT1): 0.48 ± 0.20 mL × g Protein^−1 × min^−1; Stereoselectivity ClInt (OCT1; given as for (S) or for 2): 1.06-fold for (S); Stereoselectivity Vmax (OCT1; given as for (S) or for 2): 1.16-fold for (S); Stereoselectivity Km (OCT1): 1.09-fold for (S); Km (OCT1): 3710 ± 1010 µM |
| NC[C@H](O)c1ccc(O)c(O)c1 [(R)-Norepinephrine] | 1.01-fold for (R) | 1.79-fold for (R) ** | 727 ± 60 pmol × mg Protein^−1 × min^−1 | 4.12 ± 1.31 mL × g Protein^−1 × min^−1 | 176 ± 41.7 | 1.78-fold for (R) | 262 ± 15 pmol × mg Protein^−1 × min^−1 | 113.3 ± 47.6 mL × g Protein^−1 × min^−1 | 1.05-fold for (S) | 1.38-fold for (S) ** | 1.32-fold for (S) | 2.31 ± 0.84 | 6603 ± 664 pmol × mg Protein^−1 × min^−1 | 3.81 ± 1.30 mL × g Protein^−1 × min^−1 | 1730 ± 418 | 1.32-fold for (R) | 3683 ± 360 pmol × mg Protein^−1 × min^−1 | 6.61 ± 3.02 mL × g Protein^−1 × min^−1 | 1.01-fold for (R) | 557 ± 200 | Clint ± SEM (DAT): 138.8 ± 19.7 mL × g Protein^−1 × min^−1; Stereoselectivity ClInt (DAT): 1.12-fold for (S); Stereoselectivity Vmax (DAT): 1.47-fold for (S) ***; Stereoselectivity Km (DAT): 1.31-fold for (S); Vmax ± SEM (DAT): 3085 ± 81 pmol × mg Protein^−1 × min^−1; Km (DAT): 22.2 ± 2.6 µM; Transporter selectivity (OCT2 A270S variant): 1.21 fold; Stereoselectivity ClInt (OCT2 [4]; given as for (R) or for 1): 1.64-fold for (R); Stereoselectivity Vmax (OCT2 [4]; given as for (R) or for 1): 2.17-fold for (R) **; Stereoselectivity Km (OCT3; [6]): 1.07-fold for (R); Stereoselectivity ClInt (OCT3; [7]): 1.07-fold for (S); Vmax ± SEM (OCT1): 1524 ± 330 pmol × mg Protein^−1 × min^−1; Clint ± SEM (OCT1): 0.45 ± 0.28 mL × g Protein^−1 × min^−1; Stereoselectivity ClInt (OCT1; given as for (S) or for 2): 1.06-fold for (S); Stereoselectivity Vmax (OCT1; given as for (S) or for 2): 1.16-fold for (S); Stereoselectivity Km (OCT1): 1.09-fold for (S); Km (OCT1): 3390 ± 1420 µM |
| C[C@@H]1NCCc2cc(O)c(O)cc21 [Salsolinol-2, Salsolinol] | 1.85 fold | 1.34 fold | 171 pmol × mg Protein^−1 × min^−1 | 0.71 mL × g Protein^−1 × min^−1 | 239 | 2.48 fold | 151 pmol × mg Protein^−1 × min^−1 | 1.48 mL × g Protein^−1 × min^−1 | 1.19 fold | 1.35 fold | 1.13 fold | 102 | 9160 pmol × mg Protein^−1 × min^−1 | 42.7 mL × g Protein^−1 × min^−1 | 213 | 1.04 fold | 697 pmol × mg Protein^−1 × min^−1 | 3.15 mL × g Protein^−1 × min^−1 | 1.01 fold | 222 | Transporter selectivity (OCT2 A270S variant; listed as (S)-Salsolinol): 1.45 fold; Stereoselectivity ClInt (OCT2 [4]; given as for (S) or for 2): 1.05 fold; Stereoselectivity Vmax (OCT2 [4]; given as for (S) or for 2): 1.01 fold; Stereoselectivity ClInt (OCT3): 1.21 fold; Stereoselectivity Km (OCT3; OCT3, ratio between enantiomers, given as for (S) or for 2 (second-eluting)): 1.20 fold; Vmax ± SEM (OCT1): 1426 pmol × mg Protein^−1 × min^−1; Clint ± SEM (OCT1): 10.9 mL × g Protein^−1 × min^−1; Stereoselectivity ClInt (OCT1; given as for (R) or for 1 (also 1.00-fold for 1/2)): 1.00 fold; Km (OCT1): 131 µM |
